Measured values published in US20080125663A1, “Pre-And Intra-Operative Imaging of Testicular Torsion” (University of Rochester Medical Center, priority 2006, published 2008).
“Also recorded” adds a separate entry of the source.

Tests used:
mammals = conditions: cited from earlier work; for neuronal toxicity: used in mammals
[1] = cited from earlier work
testes of a rat = test: Near IR fluorescence imaging of testicular perfusion after unilateral interruption of blood flow to the right testis; assay type: in vivo
Protocol: Intraoperative video angiography is performed with a laser-fluorescence imaging device (Novadaq Technologies, Inc., Toronto, Canada) consisting of a near infrared (NIR) laser light source and a NIR-sensitive digital camcorder. For measurements, the unit is positioned 30 to 40 cm from the area of interest. ICG, dissolved in water, is then injected as a bolus. When ICG is used as the imaging dye, NIR light emitted by the laser light source induces ICG fluorescence. The fluorescence is typically imaged by a video camera, with optical filtering to block ambient and laser light so that only ICG fluorescence is captured. […] Two rats were subjected to unilateral interruption of blood flow to the right testis. In rat A, a bulldog clamp was used, in rat B, a mosquito clamp (a smaller clamp designed to cut off blood flow in small blood vessels) was used. ICG was administered by IV to each rat to determine the ability to visualize the degree to which the testicle underwent hypoperfusion or lack of perfusion. Prior to administration of ICG, rat A was first subjected to near IR and imaged. […] 0.5 ml of ICG at a concentration of 2.5 mg/ml was then administered by IV. The right spermatic cord was clamped with a bulldog clamp to create vascular obstruction and the testicles were imaged.

[2] = bulldog clamp, 0.5 ml of 2.5 mg/ml ICG IV, imaged through the scrotum

Compound	neuronal toxicity (mammals)	toxicity (mammals; in vivo)	distribution ([1]; after intravenous injection, with normal vascular permeability)	time to binding, mainly to globulins (1-lipoproteins) ([1]; after intravenous injection)	enterohepatic recirculation ([1]; in vivo)	excretion ([1]; in vivo)	metabolism in the body ([1]; in vivo)	reabsorption from the intestine ([1]; in vivo)	fluorescence of the right testicle after removal of the clamp (reperfusion) (testes of a rat; bulldog clamp removed from the spermatic cord)	fluorescence of the right testicle during clamp obstruction of the right spermatic cord (testes of a rat; bulldog clamp, 0.5 ml of 2.5 mg/ml ICG IV, exposed testes)	fluorescence of the left hemiscrotum (unclamped side) (testes of a rat; [2])	fluorescence of the right hemiscrotum (clamped side) (testes of a rat; [2])	differential perfusion seen after occlusion (testes of a rat; mosquito (vascular) clamp, ICG IV)
N=C(N)c1ccc(/C=C/c2ccc(C(=N)N)cc2O)cc1 [Fluorogold]	low evidence of neuronal toxicity	–	–	–	–	–	–	–	–	–	–	–	–
CC1(C)C(/C=C/C=C/C=C/C=C2\N(CCCCS(=O)(=O)O)c3ccc4ccccc4c3C2(C)C)=[N+](CCCCS(=O)(=O)[O-])c2ccc3ccccc3c21 [ICG, indocyanine green]	low evidence of neuronal toxicity	low toxicity	remains intravascular	1 to 2 s	does not undergo enterohepatic recirculation	excreted exclusively by the liver	not metabolized	not reabsorbed from the intestine	restoration of fluorescence; also recorded: Fluoresence of the right testicle was observed	absence of fluorescence	intense fluorescence	low fluorescence	obvious differential perfusion
Fast Blue	low evidence of neuronal toxicity	–	–	–	–	–	–	–	–	–	–	–	–
